Source: patent US11000033B2, “Ketone or oxime compound, and herbicide” (NISSAN CHEMICAL CORPORATION, priority 2014, dated 2021)

Key:
Format in all cases: in vivo
rapeseed [1] = test: Test Example 5: effect on crop by foliage application, plastic box (symbol g); conditions: 320 g/ha, 3 weeks after application
How it was run: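 Greenhouse test at 25° C. to 30° C. Seeds of crops and weeds were spot-sown in boxes of sterilized diluvial soil under roughly 1.5 cm soil cover, then grown for foliage treatment.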

Digitaria ciliaris = test: Test Example 4: herbicidal effect by soil treatment (symbol F); conditions: application herbicide amount 320 g/ha
How it was run: (§1)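 Seeds were sown in sterilized diluvial soil, covered with about 1.5 cm of soil, and the soil surface was sprayed with a water-diluted emulsion of the compound at a predetermined rate. Plants grew in a greenhouse at 25° C. to 30° C.; effects were scored visually 3 weeks after application.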

rapeseed [2] = test: Test Example 4: effect on crop by soil treatment (symbol g); conditions: application herbicide amount 320 g/ha
How it was run: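 The test used sterilized diluvial soil. Seed was set down in spots and overlaid with about 1.5 cm of soil before growth in a greenhouse kept at 25° C. to 30° C.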

Scirpus juncoides [3] = test: Test Example 2: herbicidal activity, application during weed generation in submerged conditions (symbol B); conditions: Table 23; application herbicide amount 320 g/ha; grade 0-5 by criteria of Test Example 1
How it was run: (§2)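 Scoring of herbicidal effect took place 3 weeks after treatment, using the criteria of the earlier test. Treatment was water-surface application of diluted emulsifiable compound at a set dose. Plants were at one- to two-leaf stage in submerged alluvial soil (4 cm depth), greenhouse 25-30° C.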

Scirpus juncoides [4] = test: Test Example 1: herbicidal activity, application before weed generation in submerged conditions (symbol B); conditions: application herbicide amount 320 g/ha
How it was run: (§3)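 Ratings (5: ≥90%, near complete withering; 4: 70–<90%; 3: 40–<70%; 2: 20–<40%; 1: 5–<20%; 0: ≤5%) were assigned 3 weeks after the diluted emulsion was applied to the water surface of freshly sown, submerged pots.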

Setaria viridis = test: Test Example 5: herbicidal effect by foliage application, plastic box (symbol G); conditions: 320 g/ha, 3 weeks after application
How it was run: (§4)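 Effect is rated 3 weeks after a foliar spray of water-diluted emulsion concentrate at a predetermined herbicide amount. Plants had grown 14 days in a 25° C. to 30° C. greenhouse from seed in sterilized diluvial soil.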

Veronica persica = test: Test Example 5: herbicidal effect by foliage application, plastic box (symbol R); conditions: 320 g/ha, 3 weeks after application
How it was run: as §4

Monochoria vaginalis [5] = test: Test Example 1: herbicidal activity, application before weed generation in submerged conditions (symbol C); conditions: application herbicide amount 320 g/ha
How it was run: as §3

Lolium multiflorum Lam. = test: Test Example 5: herbicidal effect by foliage application, plastic box (symbol K); conditions: 320 g/ha, 3 weeks after application
How it was run: as §4

[6] = test system: Echinochloa crus-galli var. crus-galli; test: Test Example 4: herbicidal effect by soil treatment (symbol H); conditions: application herbicide amount 320 g/ha
How it was run: as §1

Monochoria vaginalis [7] = test: Test Example 2: herbicidal activity, application during weed generation in submerged conditions (symbol C); conditions: Table 23; application herbicide amount 320 g/ha; grade 0-5 by criteria of Test Example 1
How it was run: as §2

Amaranthus retroflexus = test: Test Example 5: herbicidal effect by foliage application, plastic box (symbol N); conditions: 320 g/ha, 3 weeks after application
How it was run: as §4

Apera spica-venti [8] = test: Test Example 4: herbicidal effect by soil treatment (symbol L); conditions: application herbicide amount 320 g/ha
How it was run: as §1

Apera spica-venti [9] = test: Test Example 5: herbicidal effect by foliage application, plastic box (symbol L); conditions: 320 g/ha, 3 weeks after application
How it was run: as §4

Row | Compound | g: rapeseed, effect on crop (criteria of Test Example 1) (rapeseed [1]) | Herbicidal effect grade, F: Digitaria ciliaris (Digitaria ciliaris) | Effect on crop grade, g: rapeseed (rapeseed [2]) | Herbicidal effect grade, B: Scirpus juncoides (Scirpus juncoides [3]) | Herbicidal effect grade, B: Scirpus juncoides (Scirpus juncoides [4]) | G: Setaria viridis, herbicidal effect (criteria of Test Example 1) (Setaria viridis) | R: Veronica persica, herbicidal effect (criteria of Test Example 1) (Veronica persica) | Herbicidal effect grade, C: Monochoria vaginalis (Monochoria vaginalis [5]) | K: Lolium multiflorum Lam., herbicidal effect (criteria of Test Example 1) (Lolium multiflorum Lam.) | Herbicidal effect grade, H: Echinochloa crus-galli var. crus-galli [6] | Herbicidal effect grade, C: Monochoria vaginalis (Monochoria vaginalis [7]) | N: Amaranthus retroflexus, herbicidal effect (criteria of Test Example 1) (Amaranthus retroflexus) | Herbicidal effect grade, L: Apera spica-venti (Apera spica-venti [8]) | L: Apera spica-venti, herbicidal effect (criteria of Test Example 1) (Apera spica-venti [9]) | g: rapeseed, effect on crop grade (rapeseed [1]) | F (Digitaria ciliaris) herbicidal effect grade (Digitaria ciliaris) | g (rapeseed) effect on crop grade (rapeseed [2]) | G: Setaria viridis, herbicidal effect grade (Setaria viridis) | R: Veronica persica, herbicidal effect grade (Veronica persica) | K: Lolium multiflorum Lam., herbicidal effect grade (Lolium multiflorum Lam.) | other results
1 | COc1cc(C)c(C2=C(O)CC(CC(C)=O)C2=O)c(C)c1 (stereo not drawn) [7-020] | 2 (Herbicidal ratio of 20% or higher and lower than 40%) | 3 (Herbicidal ratio of 40% or higher and lower than 70%) | 0 (Herbicidal ratio of 5% or lower (almost no effect)) | 0 (Herbicidal ratio of 5% or lower (almost no effect)) | 0 (Herbicidal ratio of 5% or lower (almost no effect)) | 3 (Herbicidal ratio of 40% or higher and lower than 70%) | 0 (Herbicidal ratio of 5% or lower (almost no effect)) | 0 (Herbicidal ratio of 5% or lower (almost no effect)) | 4 (Herbicidal ratio of 70% or higher and lower than 90%) | 0 (Herbicidal ratio of 5% or lower (almost no effect)) | 0 (Herbicidal ratio of 5% or lower (almost no effect)) | 0 (Herbicidal ratio of 5% or lower (almost no effect)) | 0 (Herbicidal ratio of 5% or lower (almost no effect)) | 3 (Herbicidal ratio of 40% or higher and lower than 70%) | – | – | – | – | – | – | –
2 | CON=C(C)CC1CC(OC(=O)C(C)(C)Oc2ccccc2)=C(c2c(C)cc(C)cc2C)C1=O (stereo not drawn) [1-017] | – | – | – | 4 (Herbicidal ratio of 70% or higher and lower than 90%) | 5 (Herbicidal ratio of 90% or more (almost completely withered)) | – | – | 2 (Herbicidal ratio of 20% or higher and lower than 40%) | – | – | 3 (Herbicidal ratio of 40% or higher and lower than 70%) | – | – | – | 4 (Herbicidal ratio of 70% or higher and lower than 90%) | 5 (Herbicidal ratio of 90% or more (almost completely withered)) | 4 (Herbicidal ratio of 70% or higher and lower than 90%) | 5 (Herbicidal ratio of 90% or more (almost completely withered)) | 3 (Herbicidal ratio of 40% or higher and lower than 70%) | 5 (Herbicidal ratio of 90% or more (almost completely withered)) | H (Echinochloa crus-galli var. crus-galli) herbicidal effect grade [6]: 5 (Herbicidal ratio of 90% or more (almost completely withered)); N: Amaranthus retroflexus, herbicidal effect grade (Amaranthus retroflexus): 4 (Herbicidal ratio of 70% or higher and lower than 90%); L (Apera spica-venti) herbicidal effect grade (Apera spica-venti [8]): 5 (Herbicidal ratio of 90% or more (almost completely withered)); L: Apera spica-venti, herbicidal effect grade (Apera spica-venti [9]): 5 (Herbicidal ratio of 90% or more (almost completely withered))
3 | CON=C(C)CC1CC(O)=C(c2c(C)cc(C)cc2SC)C1=O (stereo not drawn) [6-075] | 3 (Herbicidal ratio of 40% or higher and lower than 70%) | – | – | 0 (Herbicidal ratio of 5% or lower (almost no effect)) | 1 (Herbicidal ratio of 5% or higher and lower than 20%) | 0 (Herbicidal ratio of 5% or lower (almost no effect)) | 0 (Herbicidal ratio of 5% or lower (almost no effect)) | 2 (Herbicidal ratio of 20% or higher and lower than 40%) | 5 (Herbicidal ratio of 90% or more (almost completely withered)) | – | 1 (Herbicidal ratio of 5% or higher and lower than 20%) | 0 (Herbicidal ratio of 5% or lower (almost no effect)) | – | 5 (Herbicidal ratio of 90% or more (almost completely withered)) | – | – | – | – | – | – | F: Digitaria ciliaris, herbicidal effect grade (Digitaria ciliaris): 0 (Herbicidal ratio of 5% or lower (almost no effect)); g: rapeseed, effect on crop grade (rapeseed [2]): 0 (Herbicidal ratio of 5% or lower (almost no effect)); H: Echinochloa crus-galli var. crus-galli, herbicidal effect grade [6]: 0 (Herbicidal ratio of 5% or lower (almost no effect)); L: Apera spica-venti, herbicidal effect grade (Apera spica-venti [8]): 3 (Herbicidal ratio of 40% or higher and lower than 70%)
4 | CON=C(C)CC1CC(OC(=O)COc2ccccc2)=C(c2c(C)cc(-c3ccccc3)cc2OC)C1=O (stereo not drawn) [6-100] | 5 (Herbicidal ratio of 90% or more (almost completely withered)) | 5 (Herbicidal ratio of 90% or more (almost completely withered)) | 5 (Herbicidal ratio of 90% or more (almost completely withered)) | 5 (Herbicidal ratio of 90% or more (almost completely withered)) | 5 (Herbicidal ratio of 90% or more (almost completely withered)) | 5 (Herbicidal ratio of 90% or more (almost completely withered)) | 3 (Herbicidal ratio of 40% or higher and lower than 70%) | 5 (Herbicidal ratio of 90% or more (almost completely withered)) | 5 (Herbicidal ratio of 90% or more (almost completely withered)) | 5 (Herbicidal ratio of 90% or more (almost completely withered)) | 5 (Herbicidal ratio of 90% or more (almost completely withered)) | 4 (Herbicidal ratio of 70% or higher and lower than 90%) | 5 (Herbicidal ratio of 90% or more (almost completely withered)) | 5 (Herbicidal ratio of 90% or more (almost completely withered)) | – | – | – | – | – | – | –
5 | CON=C(C)CC1CC(O)=C(c2c(C)cc(-c3ccc(Cl)cc3)cc2OC)C1=O (stereo not drawn) [6-077, 2-(4′-chloro-3-methoxy-5-methyl-[1,1′-biphenyl]-4-yl)-3-hydroxy-5-{2-(methoxyimino)propyl}cyclopent-2-enone] | 5 (Herbicidal ratio of 90% or more (almost completely withered)) | – | – | 4 (Herbicidal ratio of 70% or higher and lower than 90%) | 3 (Herbicidal ratio of 40% or higher and lower than 70%) | 5 (Herbicidal ratio of 90% or more (almost completely withered)) | 4 (Herbicidal ratio of 70% or higher and lower than 90%) | 3 (Herbicidal ratio of 40% or higher and lower than 70%) | 5 (Herbicidal ratio of 90% or more (almost completely withered)) | – | 3 (Herbicidal ratio of 40% or higher and lower than 70%) | 1 (Herbicidal ratio of 5% or higher and lower than 20%) | – | 5 (Herbicidal ratio of 90% or more (almost completely withered)) | – | – | – | – | – | – | F: Digitaria ciliaris, herbicidal effect grade (Digitaria ciliaris): 5 (Herbicidal ratio of 90% or more (almost completely withered)); g: rapeseed, effect on crop grade (rapeseed [2]): 4 (Herbicidal ratio of 70% or higher and lower than 90%); H: Echinochloa crus-galli var. crus-galli, herbicidal effect grade [6]: 5 (Herbicidal ratio of 90% or more (almost completely withered)); L: Apera spica-venti, herbicidal effect grade (Apera spica-venti [8]): 5 (Herbicidal ratio of 90% or more (almost completely withered))
6 | CON=C(C)C(C(C)=NOC)C1CC(O)=C(c2c(C)cc(C)cc2C)C1=O (stereo not drawn) [1-021] | – | – | – | 0 (Herbicidal ratio of 5% or lower (almost no effect)) | 0 (Herbicidal ratio of 5% or lower (almost no effect)) | – | – | 0 (Herbicidal ratio of 5% or lower (almost no effect)) | – | – | 0 (Herbicidal ratio of 5% or lower (almost no effect)) | – | – | – | 2 (Herbicidal ratio of 20% or higher and lower than 40%) | 0 (Herbicidal ratio of 5% or lower (almost no effect)) | 0 (Herbicidal ratio of 5% or lower (almost no effect)) | 1 (Herbicidal ratio of 5% or higher and lower than 20%) | 0 (Herbicidal ratio of 5% or lower (almost no effect)) | 4 (Herbicidal ratio of 70% or higher and lower than 90%) | H (Echinochloa crus-galli var. crus-galli) herbicidal effect grade [6]: 0 (Herbicidal ratio of 5% or lower (almost no effect)); N: Amaranthus retroflexus, herbicidal effect grade (Amaranthus retroflexus): 0 (Herbicidal ratio of 5% or lower (almost no effect)); L (Apera spica-venti) herbicidal effect grade (Apera spica-venti [8]): 0 (Herbicidal ratio of 5% or lower (almost no effect)); L: Apera spica-venti, herbicidal effect grade (Apera spica-venti [9]): 4 (Herbicidal ratio of 70% or higher and lower than 90%)
